Some results are limits rather than exact numbers.

The subject of assay [1] is Vero. The assay can be described thus: Cytotoxicity against uninfected PHA-stimulated vero cells was determined. Type of assay: cell-based. The following applies: Chlorocebus sabaeus.
Assay [2] is described as follows: Cytotoxicity against uninfected PHA-stimulated human peripheral blood mononuclear (PBM) cells was determined. Format: cell-based.
Assay [3] can be described thus: Antiviral activity was evaluated in mitogen-stimulated human peripheral blood mononuclear (PBM) cells infected with HIV-1 strain LAV. Type of assay: functional.
For assay [4], the system named is CCRF-CEM. The assay can be described thus: Cytotoxicity against uninfected PHA-stimulated CEM cells was determined. Format: cell-based. As to conditions: Homo sapiens.
The subject of assay [5] is Vero. The assay can be described thus: Cytotoxicity against uninfected PHA-stimulated vero cells was determined. Format: cell-based. As to conditions: Chlorocebus sabaeus.
For assay [6], the system named is CCRF-CEM. Description: Cytotoxicity against uninfected PHA-stimulated CEM cells was determined. Format: cell-based. As to conditions: Homo sapiens.
A short description of assay [7]: Antiviral activity was evaluated in mitogen-stimulated human peripheral blood mononuclear (PBM) cells infected with HIV-1 strain LAV. Format: functional.
Assay [8] can be described thus: Cytotoxicity against uninfected PHA-stimulated human peripheral blood mononuclear (PBM) cells was determined. Format: cell-based.

By IC50 is commonly meant the concentration at which inhibition is half-maximal. Low readings indicate inhibition by little substance, high ones a need for much substance. One may read the EC50 as the midpoint of the concentration-response curve. Consider `OC[C@@H]1OC[C@@H](n2cnc3c(Cl)ncnc32)O1`, for which the IC50 in assay [1] is > 100 µM; in assay [2], > 100 µM; in assay [4], 57.6 µM. In assay [3], this molecule had an EC50 of 11.1 µM.

Turning to `Nc1nc(Cl)nc2c1ncn2[C@@H]1CO[C@@H](CO)O1`, the IC50 in assay [1], in assay [2] and in assay [4] was > 100 µM in each case. Moreover, the EC50 in assay [3] amounted to 39.9 µM.

Regarding `OC[C@@H]1OC[C@H](n2cnc3c(Cl)ncnc32)O1`, the IC50 in assay [1], in assay [2] and in assay [4] was > 100 µM each time. The molecule also displayed an EC50 in assay [3] of 22.8 µM.

With `CSc1ncnc2c1ncn2[C@H]1CO[C@@H](CO)O1`, the IC50 in assay [5], in assay [6] and in assay [8] was > 100 µM in each case. Further, in assay [7], the response was half-maximal at 25.1 µM (EC50).

With `OC[C@@H]1OC[C@H](n2cnc3c(S)ncnc32)O1`, the IC50 in assay [1], in assay [2] and in assay [4] was > 100 µM each time. The same molecule registered a concentration for a half-maximal effect (EC50) in assay [3] of 26.5 µM.

For `CNc1nc(Cl)nc2c1ncn2[C@H]1CO[C@@H](CO)O1`, the IC50 in assay [1], in assay [2] and in assay [4] was > 100 µM in each case. In addition, in assay [3], a half-maximal response (EC50) required 40 µM.

Regarding `Nc1nc2c(ncn2[C@H]2CO[C@@H](CO)O2)c(=O)[nH]1`, the IC50 in assay [5], in assay [6] and in assay [8] was > 100 µM throughout. For the same molecule, in assay [7], a half-maximal response (EC50) required 0.03 µM.

Take `Nc1nc(Cl)nc2c1ncn2[C@H]1CO[C@@H](CO)O1`: the IC50 in assay [1], in assay [2] and in assay [4] was > 100 µM in each case. This molecule had an EC50 in assay [3] of 1.7 µM.

Regarding `Cc1cn([C@H]2C[C@H](N=[N+]=[N-])[C@@H](CO)O2)c(=O)[nH]c1=O` [ZIDOVUDINE], the results for the IC50 in assay [2] and in assay [4] were > 100 µM and 30.9 µM, respectively. This molecule also showed an EC50 in assay [3] of 0.004 µM.
